Substitutions are numbered along the chain they refer to.
Tests used:
Format in all cases: cell-based
[1] = biological target: T1, mBest2 (mouse bestrophin-2) (Mus musculus, UniProt Q8BGM5, S79T); assay: whole-cell patch clamp, block of Cl current in HEK293
T1 sequence (Q8BGM5 1-508 S79T): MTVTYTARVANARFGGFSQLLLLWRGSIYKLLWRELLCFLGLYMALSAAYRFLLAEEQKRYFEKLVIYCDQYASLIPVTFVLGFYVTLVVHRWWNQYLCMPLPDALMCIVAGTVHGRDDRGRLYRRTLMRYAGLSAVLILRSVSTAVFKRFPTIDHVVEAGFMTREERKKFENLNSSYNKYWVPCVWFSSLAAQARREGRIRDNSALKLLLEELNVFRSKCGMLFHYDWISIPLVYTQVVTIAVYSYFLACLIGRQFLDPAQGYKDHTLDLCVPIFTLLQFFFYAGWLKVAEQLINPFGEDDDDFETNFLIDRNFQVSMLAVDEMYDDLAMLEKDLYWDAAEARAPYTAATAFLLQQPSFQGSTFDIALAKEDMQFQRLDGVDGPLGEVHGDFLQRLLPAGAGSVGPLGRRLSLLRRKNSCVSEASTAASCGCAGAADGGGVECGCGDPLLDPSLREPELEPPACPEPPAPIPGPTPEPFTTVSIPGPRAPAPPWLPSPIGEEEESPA

[2] = biological target: T2, mBest2 (mouse bestrophin-2) (Mus musculus, UniProt Q8BGM5); assay: as above
T2 sequence (Q8BGM5 1-508): T1 sequence (Q8BGM5 1-508 S79T) with T79S

[3] = biological target: T3, mBest2 (mouse bestrophin-2) (Mus musculus, UniProt Q8BGM5, F80R); assay: whole-cell patch clamp, inhibition of Cl current in HEK293
T3 sequence (Q8BGM5 1-508 F80R): T1 sequence (Q8BGM5 1-508 S79T) with T79S, F80R

SMILES	IC50 [1]	IC50 [2]	Ki [3]
N#CS [SCN]	18.5 ± 2.7 mM	9.8 ± 1.1 mM	
O=S(=O)(O)c1cc(N=C=S)ccc1/C=C/c1ccc(N=C=S)cc1S(=O)(=O)O [DIDS]			0.016 mM

From PMC2233901 (The Journal of General Physiology, 2004)
